Patent publication US20160340656A1, “PEPTIDES DERIVED FROM GSE 24.2 FOR TREATING DISEASES CAUSED BY OXIDATIVE STRESS AND DAMAGE TO DNA” (CONSEJO SUPERIOR DE INVESTIGACIONES CIENTÍFICAS (CSIC), priority 2013, published 2016)

Tests used:
Assay type in all cases: cell-based, human
[1] = system: AT2078 cells of patients with ataxia telangiectasia; test: Damage to DNA in AT2078 cells: histone H2AX Ser139 foci after expression of GSE4 or SGSE4
Experimental: FIG. 14. Determination of damage to DNA in AT cells after transfecting peptides GSE4 and SGSE4: AT2078 AT cells were infected with a lentiviral vector expressing GSE4, SGSE4 or a GFP empty vector and 24 hours later were fixed for processing and hybridised with an antibody against phosphorylated histone H2AX (Ser139). Control C-1787 cells were used as the negative control. Next they were hybridised with a fluorescein-labelled antibody and were stained with DAPI to locate the nuclei.
As the peptide denominated GSE4 was the smallest sized of the peptides with ability to inhibit damage to DNA, we studied if another peptide with a similar sequence localised in the sequence of peptide GSE24.2 had the same activity or if that activity was specific to GSE4. Peptide SGSE4 (SEQ ID No. 15) is similar to GSE4 in sequence (amino acids LDPK/LDKP that constitute consensus sequences for pseudouridine synthases) and size and is found in the TRUBII domain of dyskerin. Cell lines AT2078 of patients with ataxia telangiectasia were used for this test. Cell line C-1787 was used as the control cell line. The cells were infected with the bicistronic lentiviral vector pCMV-GFP-GSE4, SGSE4 or GFP. After 48 hours of infection the cells were fixed with formaldehyde and then permeabilized by treating them with Triton X-100. The damage to DNA was estimated by studying the signal after hybridisation of the cells with an antibody against histone H2AX Ser139 and subsequent hybridisation with an antibody bound to fluorescein. The number of foci with stain for histone H2AX per nucleus was determined by confocal microscopy in a total of 200 cells and the data represented as a percentage of cells with a specific number of foci.

AT719-P cells = test: Oxidative stress (ROS by DHE, flow cytometry) in AT719-P cells expressing GSE24.2 or GSE4; conditions: three weeks after infection
Experimental: FIG. 11. Determination of oxidative stress levels in ataxia telangiectasia cells after expressing the peptides GSE24.2 and GSE4. AT719-P cells were infected with a lentiviral vector expressing GSE24.2, GSE4 or a GFP empty vector and three weeks later loaded with the DHE reagent that detects levels of reactive oxygen species (ROS). AT736C cells were used as a control. The relative fluorescence of the four cell lines and the proportion of cells with maximum intensity were determined by flow cytometry at wavelengths of 518 nm absorption and 605 nm emission. The data are shown as relative percentage of cells that emit at this wavelength.
(§1) As the peptide denominated GSE4 was smaller than the peptides with ability to repair telomerase activity, we studied if it had the same activity as peptide GSE24.2 for attenuating oxidative stress, expression of proinflammatory cytokines and repairing the senescence in ataxia telangiectasia cells. […] Finally, given that the increase in expression of the interleukins IL6 and IL8 are associated with a secretory phenotype linked to senescence in ataxia telangiectasia, we evaluated the ability of both peptides GSE24.2 and GSE4 to reduce senescence by evaluating senescence-associated β-galactosidase activity (SA-beta-Gal) (FIG. 13).

IL8 = test: Expression of proinflammatory cytokine IL8 in AT719-P cells; conditions: relative to β-actin
Experimental: (§2) FIG. 12. Levels of expression of proinflammatory cytokines in ataxia telangiectasia cells after expressing peptides GSE24.2 and GSE4. AT719-P AT cells were infected with a lentiviral vector expressing GSE24.2, GSE4 or a GFP empty vector and three weeks later the RNA was extracted and after obtaining the corresponding cDNA, the levels of expression of the proinflammatory cytokines IL6 and IL8 were determined. AT736C cells were used as a control. The levels of expression of the gene β-actin were measured as control of expression. The results are expressed as the relative increase in the number of times of expression of each of the genes compared to β-actin, considering the levels of expression of AT736C cells as 1.
as §1

IL6 = test: Expression of proinflammatory cytokine IL6 in AT719-P cells; conditions: relative to β-actin
Experimental: as §2, §1

AT2078 AT cells = test: Senescence-associated β-galactosidase activity in AT cells; conditions: 3 days or eight days after infection
From the text: FIG. 13. Determination of senescence of AT cells after expressing peptides GSE24.2 and GSE4: AT2078 AT cells were infected with a lentiviral vector expressing GSE24.2, GSE4 or a GFP empty vector and 3 days or eight days later they were fixed to determine the expression of the enzyme β-galactosidase acid associated with senescence (senescence-associated β-galactosidase). Control C-1787 cells were used as the negative control. The percentage of cells expressing β-galactosidase from the total cells per field was determined. 200 cells per cell type were evaluated and the results grouped into cells showing no activity (βgal-, in division) and senescent cells (β-gal+).
as §1

[2] = system: AT3487 cells from patients with ataxia telangiectasia; test: Damage to DNA in AT cells: phosphorylated histone H2AX (Ser139) foci after lentiviral expression of GSE24.2
Experimental: (§3) FIG. 1. Determination of damage to DNA in AT cells: AT3784 AT cells were infected with a lentiviral vector expressing GSE24.2 or a GFP empty vector and were fixed 24 hours later to be processed and hybridised with an antibody against phosphorylated histone H2AX (Ser139). Control C-1787 cells were used as the negative control. Next they were hybridised with a fluorescein-labelled antibody and were stained with DAPI to locate the nuclei.
To perform this test, cell lines from patients with ataxia telangiectasia (AT, from the Coriell repository) with a mutation in the gene ATM and denominated AT3487 were used. Cell line C-1787 was used as the control cell line. The cells were infected with the bicistronic lentiviral vector pCMV-GFP-GSE24.2. After 48 hours of infection the cells were fixed with formaldehyde and then permeabilized by treating them with Triton X-100. The damage to DNA was estimated by studying the signal after hybridisation of the cells with an antibody against histone H2AX Ser139 and subsequent hybridisation with an antibody bound to fluorescein. The number of foci with stain for histone H2AX/nucleus was determined by confocal microscopy in a total of 200 cells and the data represented as a percentage of cells with a specific number of foci.

AT cells (AT3784) = test: Damage to DNA in AT cells: pCHK2 Thr68 foci after lentiviral expression of GSE24.2
Experimental: as §3, with “2.” for “1.”, “the kinase pCHK2[…].” for “phosphorylated histone H2AX (Ser139).”, “nuclei. […] Therefore expression of GSE24.2 is able to correct damage to DNA in 28% of cells, confirming the data obtained with phosphorylated histone H2AX.” for “nuclei.”

[3] = 200 cells, lentiviral expression of GSE24.2

Sequence	overall correction of damage to DNA [1]	AT cells in which overall damage to DNA is corrected ([1]; 200 cells)	reduction of levels of free radicals (AT719-P cells)	reduction of levels of expression of IL8 (IL8)	reduction of levels of expression of IL6 (IL6)	senescence: percentage of cells positive for beta-galactosidase activity (AT2078 AT cells)	correction of overall damage to DNA [2]	AT cells in which levels of damage to DNA are reduced [2, 3]	AT cells in which overall damage to DNA is fully corrected [2, 3]	cells in which damage to DNA is corrected (AT cells (AT3784))	fewer AT cells showing basal damage (AT cells (AT3784); after expressing GSE24.2)	reduction of high levels of damage to DNA (AT cells (AT3784); after expressing GSE24.2)
GFINLDKPSNP [GSE4]	60%	38%	50%	90%	80%	reduced the percentage of positive cells for beta-galactosidase activity progressively over time						
GFINLDKPSNPSSHEVVAWIRRILRVEKTGHSGTLDPKVTGCLIVCIERATRLVK (GSE24.2; listed as Homo sapiens) [55-amino-acid peptide corresponding to the protein dyskerin; known from WO2007/090911]			~50%	in the same range		reduced the percentage of positive cells for beta-galactosidase activity progressively over time	40%	25%	20%	28%	25%	13%
